Measurements as given in PubChem BioAssay AID2060335 (Molecular Pharmacology Branch, DTP, NCI, 2025).

System: DU-145 multicell spheroids with HUVEC/MSC, viability
Assay: Anticancer human tumor DU-145 cell line growth inhibition [IpAb];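 further: spheroids exposed to agents for seven days before measurement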;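 on viability, T/C: percent of DMSO vehicle control viability so 100% = untreated level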
Settings: for IC50: curve of first compound; for viability, T/C: stronger effect = lower value
Description: Combinatorial screen of targeted agents with ipatasertib and abemaciclib in multi-cell type tumor spheroids
A high-throughput screen of multi-cell type tumor spheroids was designed to identify active combinations of targeted small molecules and ipatasertib or abemaciclib. Complex spheroids include a stromal component modeled by human endothelial cells (HUVEC) and fibroblasts modeled by human mesenchymal stem cells (MSCs). The concentration ranges selected for each drug and investigational agent were based upon clinically achievable concentrations if the clinical Cmax of the agent was known.
Compounds. The drugs and investigational agents: ipatasertib (NSC767898), abemaciclib(NSC768073), selumetinib (NSC741078), trametinib (758246), adavosertib (NSC754352), everolimus (NSC733504), sapanisertib (NSC764658), vemurafenib (NSC761431), venetoclax (NSC766270), copanlisib (NSC809693), apelisib (NSC765974), palbociblib (NSC758247), vemurafenib (NSC761431), dabrafenib (NSC764134), ravoxertinib (NSC781343), BMS-387032 (NSC767048), sotorasib (NSC818433), talazoparib (NSC767125) and afursertib (NSC778305), were obtained from the National Cancer Institute (NCI) Developmental Therapeutics Program Chemical Repository. The FDA-approved anticancer drug set is available from the NCI Developmental Therapeutics Program. […] The stock solutions were prepared in dimethyl sulfoxide (DMSO, Sigma-Aldrich, St. Louis, MO, cat. D2650) at 800-fold the tested concentration and stored at -70 degrees C prior to their use. All drugs and investigational agents were tested over a range starting from a high concentration at or near the clinical Cmax and decreasing in half-log increments. If the clinical Cmax for an agent had not been determined, the highest concentration tested was 10 microM.
NCI60 Cell Culture. NCI60 cell lines were obtained from the NCI Developmental Therapeutics Program Tumor Repository. For each lot of cells, the Repository performed Applied Biosystems AmpFLSTR Identifiler testing with PCR amplification to confirm consistency with the published Identifier STR profile for each cell line. Cells were kept in continuous culture for no more than 20 passages. The optimal seeding densities for each of the cell lines at each time point assessed were determined prior to performing the concentration response studies. Briefly, the NCI60 human tumor lines were grown as monolayers in RPMI 1640 medium supplemented with 10% FBS and 2 mmol/L L-glutamine.
An additional 9 lines were from the NCI60 cell line panel including MDA-MB-231 breast carcinoma, MDA-MB-468 breast carcinoma, MCF7 breast carcinoma, Hs578T breast carcinoma, MALME-3M melanoma, SK-MEL-2 melanoma, SK-OV-3 ovarian carcinoma, DU-145 prostate carcinoma, PC-3 prostate carcinoma, all cell lines along with major genetic alterations are listed on Table 2. Pooled donor human umbilical vein endothelial cells (HUVEC, Lonza, cat. CC-2519) and human mesenchymal stem cells (hMSC, Lonza, cat. PT-2501) were purchased from Lonza (Walkersville, MD).
PDMR cell lines were grown in complete medium (DC medium): Dulbecco's modified Eagle's medium (DMEM)/F12 supplemented with 5% fetal bovine serum (FBS), 2 mM L-glutamine, 100 U/mL penicillin and 100 µg/ml streptomycin, 0.4 µg/ml hydrocortisone, 10 ng/ml epidermal growth factor (EGF) recombinant human protein, 24 µg/mL adenine, and 0.1 mg/mL primocin. During culture from frozen stock vials, PDMR cells were cultured in the same medium containing 10 µM Y-27632 (see Table 3). The PDCs were cultured in complete DMEM/F12 media without 10 microM Y-27632 dihydrochloride for at least two passages prior to the screen. The pooled donor HUVEC and hMSC were cultured in endothelial cell growth medium 2 (PromoCell, Heidelberg, Germany, cat. C-22011) and mesenchymal stem cell growth medium 2 (PromoCell, cat. C-28009), respectively. For all experiments, HUVEC and hMSC were used at passages </=5.
[…]

[1] = second compound 0.1 µM, first compound 0.0316 µM
[2] = second compound 0.1 µM, first compound 0.1 µM
[3] = second compound 0.1 µM, first compound 0.316 µM
[4] = second compound 0.1 µM, first compound 1 µM
[5] = second compound 0.1 µM, first compound 3.16 µM
[6] = second compound 0.1 µM, first compound 10 µM
[7] = second compound 0.316 µM, first compound 0.0316 µM
[8] = second compound 0.316 µM, first compound 0.1 µM
[9] = second compound 0.316 µM, first compound 0.316 µM
[10] = second compound 0.316 µM, first compound 1 µM
[11] = second compound 0.316 µM, first compound 3.16 µM
[12] = second compound 0.316 µM, first compound 10 µM
[13] = second compound 1 µM, first compound 0.0316 µM
[14] = second compound 1 µM, first compound 0.1 µM
[15] = second compound 1 µM, first compound 0.316 µM
[16] = second compound 1 µM, first compound 1 µM
[17] = second compound 1 µM, first compound 3.16 µM
[18] = second compound 1 µM, first compound 10 µM

SMILES | IC50 (second compound 0.1 µM) | IC50 (second compound 0.316 µM) | IC50 (second compound 1 µM) | viability, T/C [1] | viability, T/C [2] | viability, T/C [3] | viability, T/C [4] | viability, T/C [5] | viability, T/C [6] | viability, T/C [7] | viability, T/C [8] | viability, T/C [9] | viability, T/C [10] | viability, T/C [11] | viability, T/C [12] | viability, T/C [13] | viability, T/C [14] | viability, T/C [15] | viability, T/C [16] | viability, T/C [17] | other results
C=CCn1c(=O)c2cnc(Nc3ccc(N4CCN(C)CC4)cc3)nc2n1-c1cccc(C(C)(C)O)n1 + CCN1CCN(Cc2ccc(Nc3ncc(F)c(-c4cc(F)c5nc(C)n(C(C)C)c5c4)n3)nc2)CC1 | 0.0643 µM | 0.0559 µM | 0.0966 µM | 69.7% | 37% | 21.9% | 16.1% | 9.64% | 9.46% | 58.7% | 40.9% | 25.2% | 14.9% | 9.9% | 10.9% | 57.3% | 50.5% | 27.1% | 14.2% | 7.82% | IC50 (second compound 0.01 µM): 0.14 µM; IC50 (second compound 0.0316 µM): 0.0883 µM; viability, T/C (second compound 0.01 µM, first compound 0.0316 µM): 85.5%; viability, T/C (second compound 0.01 µM, first compound 0.1 µM): 61.3%; viability, T/C (second compound 0.01 µM, first compound 0.316 µM): 21.9%; viability, T/C (second compound 0.01 µM, first compound 1 µM): 17%; viability, T/C (second compound 0.01 µM, first compound 3.16 µM): 10.1%; viability, T/C (second compound 0.01 µM, first compound 10 µM): 9.83%; viability, T/C (second compound 0.0316 µM, first compound 0.0316 µM): 75.3%; viability, T/C (second compound 0.0316 µM, first compound 0.1 µM): 47.6%; viability, T/C (second compound 0.0316 µM, first compound 0.316 µM): 21.7%; viability, T/C (second compound 0.0316 µM, first compound 1 µM): 16.9%; viability, T/C (second compound 0.0316 µM, first compound 3.16 µM): 10.7%; viability, T/C (second compound 0.0316 µM, first compound 10 µM): 8.6%; viability, T/C [18]: 8.53%
Cc1nc(NC(=O)N2CCCC2C(N)=O)sc1-c1ccnc(C(C)(C)C(F)(F)F)c1 (stereo not given) + CC(C)NCC(C(=O)N1CCN(c2ncnc3c2C(C)CC3O)CC1)c1ccc(Cl)cc1 | 0.0947 µM | < 0.0316 µM | < 0.0316 µM | 65.7% | 49.2% | 32.1% | 27.9% | 18.1% | 7.81% | 40% | 35% | 26.2% | 22.4% | 14.7% | 6.56% | 27.1% | 24.3% | 20.5% | 17.1% | 12.4% | IC50 (second compound 3.16 µM): < 0.0316 µM; IC50 (second compound 10 µM): < 0.0316 µM; viability, T/C [18]: 5.68%; viability, T/C (second compound 3.16 µM, first compound 0.0316 µM): 18.3%; viability, T/C (second compound 3.16 µM, first compound 0.1 µM): 18.5%; viability, T/C (second compound 3.16 µM, first compound 0.316 µM): 14.1%; viability, T/C (second compound 3.16 µM, first compound 1 µM): 14%; viability, T/C (second compound 3.16 µM, first compound 3.16 µM): 8.48%; viability, T/C (second compound 3.16 µM, first compound 10 µM): 5.66%; viability, T/C (second compound 10 µM, first compound 0.0316 µM): 14.9%; viability, T/C (second compound 10 µM, first compound 0.1 µM): 13.5%; viability, T/C (second compound 10 µM, first compound 0.316 µM): 11.8%; viability, T/C (second compound 10 µM, first compound 1 µM): 9.73%; viability, T/C (second compound 10 µM, first compound 3.16 µM): 8.28%; viability, T/C (second compound 10 µM, first compound 10 µM): 5.36%
